Experimental data from ChEMBL document CHEMBL3596180, “Evaluation of histone deacetylase inhibitors (HDACi) as therapeutic leads for human African trypanosomiasis (HAT)” (Bioorg Med Chem, 2015).
Values belong to the molecule of their own block, whether it stands above or below them. Activity calls are given as the source filed them. The rule behind the calls is not given here.

Columns and labels:
Histone deacetylase 4 = Histone deacetylase 4 (Homo sapiens, UniProt P56524); experiment: Inhibition of human HDAC4
Chain of Histone deacetylase 4 (P56524 whole entry): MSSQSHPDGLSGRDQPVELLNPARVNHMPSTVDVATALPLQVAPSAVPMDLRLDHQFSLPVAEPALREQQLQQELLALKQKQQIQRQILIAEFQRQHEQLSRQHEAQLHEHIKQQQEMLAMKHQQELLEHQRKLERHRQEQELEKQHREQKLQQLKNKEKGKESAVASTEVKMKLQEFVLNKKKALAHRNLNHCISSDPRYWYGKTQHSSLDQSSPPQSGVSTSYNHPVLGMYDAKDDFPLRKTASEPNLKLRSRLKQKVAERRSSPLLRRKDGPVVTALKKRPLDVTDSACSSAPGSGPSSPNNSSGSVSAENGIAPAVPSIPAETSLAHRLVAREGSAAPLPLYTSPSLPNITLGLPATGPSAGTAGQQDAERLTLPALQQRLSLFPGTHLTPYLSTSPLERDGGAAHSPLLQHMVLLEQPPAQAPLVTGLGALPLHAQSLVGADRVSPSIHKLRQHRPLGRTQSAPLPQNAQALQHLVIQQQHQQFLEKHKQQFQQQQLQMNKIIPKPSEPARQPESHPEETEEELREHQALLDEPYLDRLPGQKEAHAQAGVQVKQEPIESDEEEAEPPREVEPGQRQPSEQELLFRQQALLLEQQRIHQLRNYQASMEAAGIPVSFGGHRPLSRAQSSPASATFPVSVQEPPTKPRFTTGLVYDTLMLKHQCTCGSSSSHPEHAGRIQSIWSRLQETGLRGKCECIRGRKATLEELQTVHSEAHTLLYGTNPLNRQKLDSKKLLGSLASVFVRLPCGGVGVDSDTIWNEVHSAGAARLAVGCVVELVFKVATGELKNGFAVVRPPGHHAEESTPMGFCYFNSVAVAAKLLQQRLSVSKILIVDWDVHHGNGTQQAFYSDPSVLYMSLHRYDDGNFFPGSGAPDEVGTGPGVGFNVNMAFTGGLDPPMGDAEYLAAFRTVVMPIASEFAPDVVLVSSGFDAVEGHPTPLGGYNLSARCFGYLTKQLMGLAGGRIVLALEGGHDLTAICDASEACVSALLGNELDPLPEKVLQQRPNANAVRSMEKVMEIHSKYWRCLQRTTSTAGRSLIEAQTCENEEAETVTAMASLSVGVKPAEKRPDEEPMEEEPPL

Histone deacetylase 3 = Histone deacetylase 3 (Homo sapiens, UniProt O15379); experiment: Inhibition of human HDAC3
Chain of Histone deacetylase 3 (O15379 whole entry): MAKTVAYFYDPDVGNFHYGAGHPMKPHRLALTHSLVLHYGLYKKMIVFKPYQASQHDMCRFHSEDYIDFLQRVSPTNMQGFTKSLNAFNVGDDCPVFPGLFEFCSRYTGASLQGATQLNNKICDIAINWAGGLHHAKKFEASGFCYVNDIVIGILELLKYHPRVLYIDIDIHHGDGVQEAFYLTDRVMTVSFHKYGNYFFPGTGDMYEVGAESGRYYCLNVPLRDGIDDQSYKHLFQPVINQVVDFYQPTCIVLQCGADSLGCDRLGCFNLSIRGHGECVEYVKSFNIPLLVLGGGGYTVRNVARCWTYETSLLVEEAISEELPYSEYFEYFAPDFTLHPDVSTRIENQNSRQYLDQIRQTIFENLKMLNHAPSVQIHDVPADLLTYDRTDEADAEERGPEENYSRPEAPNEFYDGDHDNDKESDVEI

[1] = target: T1, Protein deacetylase HDAC6 (Homo sapiens, UniProt Q9UBN7); experiment: Inhibition of human HDAC6
T1 sequence (Q9UBN7 whole entry): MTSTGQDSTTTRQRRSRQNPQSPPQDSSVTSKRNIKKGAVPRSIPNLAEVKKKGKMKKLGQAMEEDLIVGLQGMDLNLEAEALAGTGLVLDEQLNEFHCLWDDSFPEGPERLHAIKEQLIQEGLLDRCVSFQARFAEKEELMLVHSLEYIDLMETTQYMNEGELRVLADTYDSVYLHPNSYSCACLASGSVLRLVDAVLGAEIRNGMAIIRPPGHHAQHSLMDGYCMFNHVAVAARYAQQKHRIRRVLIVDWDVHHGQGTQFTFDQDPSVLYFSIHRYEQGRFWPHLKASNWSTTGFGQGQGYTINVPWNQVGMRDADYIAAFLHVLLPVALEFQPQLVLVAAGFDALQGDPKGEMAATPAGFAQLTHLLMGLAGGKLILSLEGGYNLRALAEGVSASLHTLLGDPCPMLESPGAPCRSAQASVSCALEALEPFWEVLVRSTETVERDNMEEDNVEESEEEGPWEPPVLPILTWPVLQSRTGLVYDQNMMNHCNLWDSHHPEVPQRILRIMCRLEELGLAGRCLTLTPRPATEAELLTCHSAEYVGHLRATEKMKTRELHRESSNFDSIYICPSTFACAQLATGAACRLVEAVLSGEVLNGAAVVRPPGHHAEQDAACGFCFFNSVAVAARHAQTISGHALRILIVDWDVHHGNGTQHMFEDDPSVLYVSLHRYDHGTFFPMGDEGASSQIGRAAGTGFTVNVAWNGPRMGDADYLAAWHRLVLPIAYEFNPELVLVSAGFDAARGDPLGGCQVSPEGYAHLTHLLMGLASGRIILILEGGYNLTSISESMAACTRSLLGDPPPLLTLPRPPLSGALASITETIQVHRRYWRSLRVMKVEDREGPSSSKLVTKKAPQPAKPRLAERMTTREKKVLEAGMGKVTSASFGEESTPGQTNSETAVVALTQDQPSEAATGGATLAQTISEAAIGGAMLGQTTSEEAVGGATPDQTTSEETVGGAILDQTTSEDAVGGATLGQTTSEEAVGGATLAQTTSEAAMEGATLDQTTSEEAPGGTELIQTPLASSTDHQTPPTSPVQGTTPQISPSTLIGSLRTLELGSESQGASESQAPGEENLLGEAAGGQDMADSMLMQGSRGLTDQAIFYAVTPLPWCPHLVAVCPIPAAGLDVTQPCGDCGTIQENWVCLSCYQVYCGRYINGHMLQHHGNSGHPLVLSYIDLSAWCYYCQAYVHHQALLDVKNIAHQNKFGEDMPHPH

Histone deacetylase 1 = Histone deacetylase 1 (Homo sapiens, UniProt Q13547); experiment: Inhibition of human HDAC1
Chain of Histone deacetylase 1 (Q13547 whole entry): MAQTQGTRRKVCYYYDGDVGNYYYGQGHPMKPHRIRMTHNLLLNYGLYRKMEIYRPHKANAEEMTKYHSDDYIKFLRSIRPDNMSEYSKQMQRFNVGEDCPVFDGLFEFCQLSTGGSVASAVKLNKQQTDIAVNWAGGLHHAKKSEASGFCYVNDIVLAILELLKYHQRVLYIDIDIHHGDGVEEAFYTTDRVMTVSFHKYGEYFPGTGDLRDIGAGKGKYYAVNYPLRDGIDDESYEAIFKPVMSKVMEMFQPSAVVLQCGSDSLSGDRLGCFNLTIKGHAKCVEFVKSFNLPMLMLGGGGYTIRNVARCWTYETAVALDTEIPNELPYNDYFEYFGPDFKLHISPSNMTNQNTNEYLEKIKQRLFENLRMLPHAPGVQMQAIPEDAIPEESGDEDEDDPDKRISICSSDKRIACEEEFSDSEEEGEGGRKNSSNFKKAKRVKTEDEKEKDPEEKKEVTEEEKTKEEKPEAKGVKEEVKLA

[2] = Tmax in po dosed human measured under phase 1 trial; type: ADME, organism-based; details: in vivo
[3] = Cmax in po dosed human measured under phase 1 trial; type: ADME, organism-based; parameters: route oral; details: in vivo
[4] = Cmax in iv dosed human measured under phase 1 trial; type: ADME, organism-based; parameters: route intravenous; details: in vivo
[5] = Cmax in po dosed human measured under phase 2 trial; type: ADME, organism-based; parameters: route oral; details: in vivo
[6] = Half-life in iv dosed human measured under phase 1 trial; type: ADME, organism-based; details: in vivo
[7] = AUC in po dosed human measured under phase 1 trial; type: ADME, organism-based; details: in vivo
[8] = system: Trypanosoma brucei brucei; experiment: Antitrypanosomal activity against Trypanosoma brucei brucei 427 assessed as inhibition of parasite proliferation measured as ATP levels after 48 hrs by luciferase-based assay; type: functional, organism-based; details: Trypanosoma brucei, 427, 48 h
[9] = Tmax in iv dosed human measured under phase 1 trial; type: ADME, organism-based; details: in vivo
[10] = Half-life in po dosed human measured under phase 1 trial; type: ADME, organism-based; details: in vivo
[11] = AUC in iv dosed human measured under phase 1 trial; type: ADME, organism-based; details: in vivo
[12] = Tmax in po dosed human measured under phase 2 trial; type: ADME, organism-based; details: in vivo
[13] = Half-life in po dosed human measured under phase 2 trial; type: ADME, organism-based; details: in vivo
[14] = AUC in po dosed human measured under phase 2 trial; type: ADME, organism-based; details: in vivo
[15] = Cmax in human; type: ADME, organism-based; details: in vivo
[16] = system: Trypanosoma brucei brucei; experiment: Trypanocidal activity against Trypanosoma brucei brucei assessed as killing of parasite densities of 10^4 to 10^6 cells/ml at 2.2 uM by clonal dilution method; type: functional, organism-based
Homo sapiens = species: Homo sapiens; experiment: Half-life in human; type: ADME, organism-based; details: in vivo
Histone deacetylase 11 = target: T2, Histone deacetylase 11 (Homo sapiens, UniProt Q96DB2); experiment: Inhibition of human HDAC11
T2 sequence (Q96DB2 whole entry): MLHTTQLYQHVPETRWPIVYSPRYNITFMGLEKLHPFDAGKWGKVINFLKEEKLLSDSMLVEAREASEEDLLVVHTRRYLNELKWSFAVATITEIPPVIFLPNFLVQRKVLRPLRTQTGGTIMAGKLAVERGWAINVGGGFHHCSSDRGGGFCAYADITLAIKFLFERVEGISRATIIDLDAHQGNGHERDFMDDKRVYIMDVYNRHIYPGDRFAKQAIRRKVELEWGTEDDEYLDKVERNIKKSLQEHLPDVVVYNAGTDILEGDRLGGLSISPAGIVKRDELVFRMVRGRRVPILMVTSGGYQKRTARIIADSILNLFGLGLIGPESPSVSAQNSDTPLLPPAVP

Histone deacetylase 5 = Histone deacetylase 5 (Homo sapiens, UniProt Q9UQL6); experiment: Inhibition of human HDAC5
Chain of Histone deacetylase 5 (Q9UQL6 whole entry): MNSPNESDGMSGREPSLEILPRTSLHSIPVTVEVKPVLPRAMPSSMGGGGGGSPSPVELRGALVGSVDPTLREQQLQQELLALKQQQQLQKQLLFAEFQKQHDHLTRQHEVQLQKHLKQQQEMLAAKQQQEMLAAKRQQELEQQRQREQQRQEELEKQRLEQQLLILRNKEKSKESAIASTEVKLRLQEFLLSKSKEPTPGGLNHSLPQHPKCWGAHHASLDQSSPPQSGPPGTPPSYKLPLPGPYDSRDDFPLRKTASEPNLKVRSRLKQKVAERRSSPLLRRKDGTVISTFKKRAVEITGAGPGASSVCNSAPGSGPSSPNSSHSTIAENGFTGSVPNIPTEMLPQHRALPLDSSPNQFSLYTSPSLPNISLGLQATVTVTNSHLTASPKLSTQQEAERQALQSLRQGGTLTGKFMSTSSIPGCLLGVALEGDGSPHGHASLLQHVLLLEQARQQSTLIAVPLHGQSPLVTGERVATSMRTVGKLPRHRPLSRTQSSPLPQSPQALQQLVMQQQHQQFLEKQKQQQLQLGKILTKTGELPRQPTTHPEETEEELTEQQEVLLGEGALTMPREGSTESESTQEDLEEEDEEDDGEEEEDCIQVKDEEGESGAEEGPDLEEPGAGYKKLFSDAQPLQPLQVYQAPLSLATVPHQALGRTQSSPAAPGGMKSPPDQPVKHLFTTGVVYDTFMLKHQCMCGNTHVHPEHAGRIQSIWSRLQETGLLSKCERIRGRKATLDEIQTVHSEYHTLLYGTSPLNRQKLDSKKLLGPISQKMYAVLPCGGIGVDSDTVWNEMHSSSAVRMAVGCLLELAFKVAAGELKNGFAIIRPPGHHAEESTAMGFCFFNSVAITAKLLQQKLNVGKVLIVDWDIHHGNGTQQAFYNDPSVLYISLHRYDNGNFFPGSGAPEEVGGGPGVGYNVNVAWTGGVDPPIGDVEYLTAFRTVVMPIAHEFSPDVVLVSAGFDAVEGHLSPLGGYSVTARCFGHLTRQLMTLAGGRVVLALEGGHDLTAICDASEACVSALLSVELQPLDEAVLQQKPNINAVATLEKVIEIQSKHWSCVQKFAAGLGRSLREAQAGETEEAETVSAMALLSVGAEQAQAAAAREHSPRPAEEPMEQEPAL

Histone deacetylase 9 = Histone deacetylase 9 (Homo sapiens, UniProt Q9UKV0); experiment: Inhibition of human HDAC9
Chain of Histone deacetylase 9 (Q9UKV0 whole entry): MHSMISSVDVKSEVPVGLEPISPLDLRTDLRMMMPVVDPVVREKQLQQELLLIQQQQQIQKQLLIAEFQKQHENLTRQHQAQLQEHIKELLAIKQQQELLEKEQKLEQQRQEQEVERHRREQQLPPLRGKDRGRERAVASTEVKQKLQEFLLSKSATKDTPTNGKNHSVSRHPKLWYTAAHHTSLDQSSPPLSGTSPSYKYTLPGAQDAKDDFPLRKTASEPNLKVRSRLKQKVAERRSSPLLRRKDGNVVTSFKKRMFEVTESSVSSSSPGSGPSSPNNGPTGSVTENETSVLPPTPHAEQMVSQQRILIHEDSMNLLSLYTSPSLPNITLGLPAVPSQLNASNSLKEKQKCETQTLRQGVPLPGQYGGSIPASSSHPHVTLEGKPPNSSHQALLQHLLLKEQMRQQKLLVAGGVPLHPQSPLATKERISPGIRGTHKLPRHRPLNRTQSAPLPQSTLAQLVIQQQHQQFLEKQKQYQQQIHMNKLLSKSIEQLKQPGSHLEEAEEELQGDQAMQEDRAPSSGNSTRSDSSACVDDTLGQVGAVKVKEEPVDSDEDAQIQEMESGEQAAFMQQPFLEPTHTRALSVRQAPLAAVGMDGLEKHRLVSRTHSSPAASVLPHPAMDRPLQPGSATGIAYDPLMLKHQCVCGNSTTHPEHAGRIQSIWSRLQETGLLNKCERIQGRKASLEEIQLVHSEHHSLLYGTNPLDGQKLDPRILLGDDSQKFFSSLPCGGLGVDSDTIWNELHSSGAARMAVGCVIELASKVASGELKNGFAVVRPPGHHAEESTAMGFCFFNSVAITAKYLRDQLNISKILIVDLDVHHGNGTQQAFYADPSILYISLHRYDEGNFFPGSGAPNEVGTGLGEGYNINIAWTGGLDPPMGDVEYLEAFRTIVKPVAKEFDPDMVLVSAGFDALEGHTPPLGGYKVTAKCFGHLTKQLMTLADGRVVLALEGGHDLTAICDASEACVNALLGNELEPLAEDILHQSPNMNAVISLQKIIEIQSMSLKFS

[17] = target: T3, Polyamine deacetylase HDAC10 (Homo sapiens, UniProt Q969S8); experiment: Inhibition of human HDAC10
T3 sequence (Q969S8 whole entry): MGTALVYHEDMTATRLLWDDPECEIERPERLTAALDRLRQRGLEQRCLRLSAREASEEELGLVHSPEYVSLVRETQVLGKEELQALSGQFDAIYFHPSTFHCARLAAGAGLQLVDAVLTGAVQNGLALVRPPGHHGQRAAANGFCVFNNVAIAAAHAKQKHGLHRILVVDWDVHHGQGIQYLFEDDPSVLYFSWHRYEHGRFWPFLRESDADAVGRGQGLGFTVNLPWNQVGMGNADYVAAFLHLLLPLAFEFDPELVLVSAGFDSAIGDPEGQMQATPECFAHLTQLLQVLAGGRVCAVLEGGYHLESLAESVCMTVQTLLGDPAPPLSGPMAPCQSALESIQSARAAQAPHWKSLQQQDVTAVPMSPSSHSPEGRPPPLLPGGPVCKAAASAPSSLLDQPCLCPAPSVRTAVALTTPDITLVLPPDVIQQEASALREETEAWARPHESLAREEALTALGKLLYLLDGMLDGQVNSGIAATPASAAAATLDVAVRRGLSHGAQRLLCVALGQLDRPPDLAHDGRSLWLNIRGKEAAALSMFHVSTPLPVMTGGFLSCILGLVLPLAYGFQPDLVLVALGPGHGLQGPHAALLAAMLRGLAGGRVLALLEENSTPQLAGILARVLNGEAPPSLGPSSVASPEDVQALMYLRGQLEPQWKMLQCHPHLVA

Histone deacetylase 7 = target: T4, Histone deacetylase 7 (Homo sapiens, UniProt Q8WUI4); experiment: Inhibition of human HDAC7
T4 sequence (Q8WUI4 whole entry): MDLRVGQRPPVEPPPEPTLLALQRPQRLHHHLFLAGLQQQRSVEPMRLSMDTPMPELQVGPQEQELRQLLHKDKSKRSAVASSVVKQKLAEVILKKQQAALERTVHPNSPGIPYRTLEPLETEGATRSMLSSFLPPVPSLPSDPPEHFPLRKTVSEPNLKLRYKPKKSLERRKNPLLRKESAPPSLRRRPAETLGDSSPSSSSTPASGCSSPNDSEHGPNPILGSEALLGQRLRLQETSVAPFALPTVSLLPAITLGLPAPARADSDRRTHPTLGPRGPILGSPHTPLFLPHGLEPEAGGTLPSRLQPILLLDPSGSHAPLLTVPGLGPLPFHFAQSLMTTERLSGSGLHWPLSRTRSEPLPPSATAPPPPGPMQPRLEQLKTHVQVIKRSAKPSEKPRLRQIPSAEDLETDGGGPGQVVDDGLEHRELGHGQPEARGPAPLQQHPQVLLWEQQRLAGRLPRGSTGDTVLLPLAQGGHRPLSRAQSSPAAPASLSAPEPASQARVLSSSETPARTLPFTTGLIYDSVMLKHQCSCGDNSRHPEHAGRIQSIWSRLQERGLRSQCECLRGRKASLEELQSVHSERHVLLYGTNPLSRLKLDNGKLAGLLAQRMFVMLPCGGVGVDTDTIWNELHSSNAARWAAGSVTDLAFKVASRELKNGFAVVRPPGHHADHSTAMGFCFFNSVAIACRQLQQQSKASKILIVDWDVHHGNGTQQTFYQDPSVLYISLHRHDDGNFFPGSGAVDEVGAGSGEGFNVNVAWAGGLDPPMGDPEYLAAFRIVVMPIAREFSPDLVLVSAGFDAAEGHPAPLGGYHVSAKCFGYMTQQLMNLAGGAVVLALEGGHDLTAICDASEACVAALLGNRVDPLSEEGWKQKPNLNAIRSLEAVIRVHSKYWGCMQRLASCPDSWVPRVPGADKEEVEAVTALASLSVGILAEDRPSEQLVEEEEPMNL

Histone deacetylase 2 = Histone deacetylase 2 (Homo sapiens, UniProt Q92769); experiment: Inhibition of human HDAC2
Chain of Histone deacetylase 2 (Q92769 whole entry): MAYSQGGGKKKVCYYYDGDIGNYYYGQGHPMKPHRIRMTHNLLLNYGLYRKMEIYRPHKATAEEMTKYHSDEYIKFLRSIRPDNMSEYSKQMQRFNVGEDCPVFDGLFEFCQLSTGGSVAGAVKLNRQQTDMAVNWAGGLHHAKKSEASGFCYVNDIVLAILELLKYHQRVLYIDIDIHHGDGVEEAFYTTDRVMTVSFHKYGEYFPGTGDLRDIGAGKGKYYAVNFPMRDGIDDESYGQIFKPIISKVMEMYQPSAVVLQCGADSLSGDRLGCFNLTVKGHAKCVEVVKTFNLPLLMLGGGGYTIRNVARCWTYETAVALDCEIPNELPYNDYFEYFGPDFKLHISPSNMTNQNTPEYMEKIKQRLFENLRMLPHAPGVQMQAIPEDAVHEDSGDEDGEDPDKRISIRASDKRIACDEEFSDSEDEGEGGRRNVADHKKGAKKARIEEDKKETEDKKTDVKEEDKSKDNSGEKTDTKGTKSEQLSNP

- Ki (Histone deacetylase 4): 2030 nM
- Ki (Histone deacetylase 3): 2.7 nM
- Ki [1]: 136 nM
- Ki (Histone deacetylase 1): 1.3 nM
SMILES: O=C(/C=C/C#Cc1cccc(NS(=O)(=O)c2ccccc2)c1)NO [OXAMFLATIN]

- Tmax [2]: 1.5 h
- Cmax [3]: 31 nM
- Cmax [4]: 1410 nM
- Cmax [5]: 191 nM
- half-life [6]: 16 h
- AUC [7]: 91.3 ng·h/mL
- EC50 [8]: 1580 nM
- EC90 [8]: 4860 nM
- Tmax [9]: 0.5 h
- half-life [10]: 12.8 h
- AUC [11]: 605 ng·h/mL
- Tmax [12]: 1 h
- half-life [13]: 15 h
- AUC [14]: 356 ng·h/mL
SMILES: Cc1[nH]c2ccccc2c1CCNCc1ccc(/C=C/C(=O)NO)cc1 [PANOBINOSTAT]

- Cmax [15]: 900 nM
- t1/2 (Homo sapiens): 265 h
SMILES: N=C(N)c1ccc(OCCCCCOc2ccc(C(=N)N)cc2)cc1 [PENTAMIDINE]
- Activity [16]: Active

- Ki (Histone deacetylase 11): 43 nM
- Cmax [3]: 497 nM
- AUC [7]: 1030 ng·h/mL
- EC50 [8]: 9550 nM
SMILES: CCCCc1nc2cc(/C=C/C(=O)NO)ccc2n1CCN(CC)CC [PRACINOSTAT]

- Tmax [2]: 4 h
- Cmax [3]: 3 nM
- Ki (Histone deacetylase 5): 2.1 nM
- AUC [7]: 9.77 ng·h/mL
- Ki (Histone deacetylase 9): 3.8 nM
- EC50 [8]: 29 nM
- Ki [17]: 0.05 nM
SMILES: Cn1cc(CNCC2CCN(c3ncc(C(=O)NO)cn3)CC2)c2ccccc21 [QUISINOSTAT]

- EC50 [8]: 5000 nM
SMILES: CC(/C=C/C(=O)NO)=C\[C@@H](C)C(=O)c1ccc(N(C)C)cc1 [TRICHOSTATIN]

- Ki (Histone deacetylase 5): 1920 nM
- EC50 [8]: 3380 nM
- Ki (Histone deacetylase 7): 5430 nM
- Ki (Histone deacetylase 2): 1180 nM
- Ki (Histone deacetylase 1): 326 nM
SMILES: O=C(CCCCCCC(=O)Nc1ccc([C@H]2O[C@@H](CSc3nc(-c4ccccc4)c(-c4ccccc4)o3)C[C@@H](c3ccc(CO)cc3)O2)cc1)NO [TUBACIN]

- EC50 [8]: 2750 nM
SMILES: CN1CCc2c(c3ccccc3n2Cc2ccc(C(=O)NO)cc2)C1 [TUBASTATIN A]
